≈ marks a conversion by molar mass, not a printed value. Where two headings read alike, the source gives them in different places.
Key:
[1] = molecular target: human FMO3 (Homo sapiens, UniProt P31513); settings: in vitro; cited from earlier work
[2] = molecular target: T1, pig liver FMO form I (Sus scrofa, UniProt P16549); settings: cited from earlier work
T1 sequence (P16549 1-532): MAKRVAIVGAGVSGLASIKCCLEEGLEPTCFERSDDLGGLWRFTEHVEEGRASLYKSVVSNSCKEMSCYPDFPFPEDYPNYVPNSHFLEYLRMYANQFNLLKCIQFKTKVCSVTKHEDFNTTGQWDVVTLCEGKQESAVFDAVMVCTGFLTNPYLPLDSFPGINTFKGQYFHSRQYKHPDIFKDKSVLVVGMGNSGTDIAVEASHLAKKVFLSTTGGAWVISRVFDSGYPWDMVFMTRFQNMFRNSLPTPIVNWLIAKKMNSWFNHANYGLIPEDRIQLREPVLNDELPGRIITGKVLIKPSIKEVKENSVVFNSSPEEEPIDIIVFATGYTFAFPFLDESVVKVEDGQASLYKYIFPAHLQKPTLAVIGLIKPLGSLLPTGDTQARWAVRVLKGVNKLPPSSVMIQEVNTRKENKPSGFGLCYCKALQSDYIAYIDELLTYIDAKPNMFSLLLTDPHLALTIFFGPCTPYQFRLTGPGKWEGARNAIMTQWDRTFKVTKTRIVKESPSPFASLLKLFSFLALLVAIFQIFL

[3] = system: NM522 E. coli; assay: Bactericidal action / cytotoxicity in liquid culture
[4] = system: E. coli containing FMO1 cDNA plasmid; assay: Agar plate growth in the presence of difloxacin, strain with FMO1 plasmid; format: cell-based; settings: 0.25 microgram/mL
From the text: (§1) To validate the observations made in liquid culture, agar plate experiments were done in the presence of difloxacin with different strains streaked out containing different FMO cDNAs.

[5] = system: E. coli strains that contained FMO3 cDNA; assay: Agar plate growth in the presence of difloxacin, strains with FMO3 cDNA; format: cell-based; settings: same conditions (0.25 microgram/mL)
From the text: as §1

[6] = system: human FMO3-maltose binding protein (FMO3-MBP); assay: Sequential N-oxygenation of primary amines to oximes by cDNA-expressed human FMO3-MBP; format: in vitro ADME
From the text: The cDNA-expressed human FMO3-maltose binding protein (FMO3-MBP) efficiently catalyzes the sequential N-oxygenation of primary amines to oximes through the intermediacy of hydroxylamines. […] In addition, formation was not dependent on autoxidation of hydroxylamines or generation of oxygen radical species. Thus, […] and O2^− had virtually no effect on the formation of oxime from the primary hydroxylamine. […] This represents a fundamental difference between FMO3 and other FMOs and indicates a use of FMO3 as a stereoselective catalyst in the formation of precious chemicals or hard to form metabolites having great stereochemical purity.

[7] = system: Human Liver Microsomes; assay: in vitro
Procedure: In all cases examined, product formation was directly determined by HPLC analysis of organic extracts.
Human liver samples were obtained from the Department of Surgery (UCSF) and with a protocol from the Medical College of Wisconsin (S. Wrighton).
A typical incubation mixture (final volume 0.25 ml) contained hepatic microsomes (0.4 mg of protein) or bacterial lysate (2.3 mg of protein), NADP^+ (0.5 mM), glucose-6-phosphate (2.0 mM), glucose-6-phosphate dehydrogenase (1 IU), DETAPAC (0.8 mM) and potassium phosphate buffer (50 mM, pH 8.4). Reactions were initiated by the addition of substrate and terminated at designated times by the addition of three volumes of cold dichloromethane, mixed thoroughly and centrifuged to separate the aqueous and organic fractions. N- and S-oxide metabolic products in the resulting organic extracts were separated and quantified by HPLC. […] Thiobenzamide and thiobenzamide S-oxide were quantified with this same, HPLC system employing a mobile phase of methanol/acetonitrile/60% perchloric acid (20:80:0.016, v/v) which gave retention volumes of 2.7 and 7.0 ml, respectively. […] The major metabolites formed in the incubations were also subjected to mass spectral analysis after extraction of isolated HPLC fractions.
RPLC of the S-oxide diastereomers with a Chiracel OT chiral analytical column (25 cm×0.15 cm inner diameter, Daicel Chemical Co., New York, N.Y.) was accomplished with a Beckman system, Kratos UV detector (240 nm) and a Hewlett Packard Integrator. […] Quantification was accomplished by comparing integrated HPLC peak areas after taking into account the difference in the extinction coefficients at 240 nm. Likewise, the cis and trans S-oxide diasteromers of (+)- and (−)-2-methyl-1,-benzodithiole were separated with a Chiracel OT chiral analytical column.

[8] = molecular target: T2, lys158-HFMO3-MBP (Homo sapiens, UniProt P31513, E158K); assay: Substrate oxygenation by lys158-HFMO3-MBP fusion protein, HPLC; settings: Lys 158 variant
T2 sequence (P31513 2-532 E158K): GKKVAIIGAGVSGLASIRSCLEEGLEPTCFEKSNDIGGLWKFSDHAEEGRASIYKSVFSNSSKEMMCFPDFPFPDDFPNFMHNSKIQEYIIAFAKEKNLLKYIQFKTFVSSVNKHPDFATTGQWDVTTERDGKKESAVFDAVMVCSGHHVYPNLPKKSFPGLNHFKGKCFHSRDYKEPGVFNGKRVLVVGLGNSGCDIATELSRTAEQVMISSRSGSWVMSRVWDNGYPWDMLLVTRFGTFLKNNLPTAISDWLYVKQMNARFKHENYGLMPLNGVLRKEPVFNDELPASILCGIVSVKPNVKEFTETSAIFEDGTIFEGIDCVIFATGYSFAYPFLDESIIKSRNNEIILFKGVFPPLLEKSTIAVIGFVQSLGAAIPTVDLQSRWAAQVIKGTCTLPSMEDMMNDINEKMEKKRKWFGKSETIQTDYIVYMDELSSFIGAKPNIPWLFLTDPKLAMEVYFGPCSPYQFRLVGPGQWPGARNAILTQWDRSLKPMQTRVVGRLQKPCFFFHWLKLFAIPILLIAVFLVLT
Procedure: For HFMO3-MBP assay, all HFMO3-MBP incubations were done as follows: Into a test tube was added DETAPAC (1.2 mM, final concentration for a 250 μl reaction) followed by the addition of 60 μl NADPH generating system (0.4 mM NADP, 0.4 mM glucose-6-phosphate, and 20 μl of a 50 units mI^−1 glucose-6-phosphate dehydrogenase). The tube was chilled on ice and buffer and enzyme were added as described below for individual experiments to give a volume of 240 μl. The incubation was initiated by the addition of 5-DTP (10 μl of 5 mM) and placed in a shaking water bath at 37° C. for 10 min (unless specified otherwise). The incubation was stopped by the addition of 1.0 ml of ice-cold CH2Cl2. Following the addition of sodium carbonate (approx. 20 mg), the culture tube was vortexed, centrifuged (2000×g, 10 min), and the organic layer was removed and transferred to a 1.5 ml microfuge tube. The organic solvent was evaporated under a stream of Ar(g) to dryness and the residue was taken up in MeOH (300 μl) for determination HPLC analysis.
Data was analyzed with a Hitachi D-2500 integrator.
MTS-oxygenation assays were carried out under the same buffer, temperature, time and volume conditions, as for the N-oxygenation assays. The reactions were initiated upon addition of 10 μl of a 5 mM solution of MTS. The reaction was quenched with the addition of 700 μl of 80% CH3CN:20% hexane then 20 mg NaCl(s) and vortexed vigorously for 10 sec. The quenched reactions were then centrifuged briefly to separate the phases. The organic layer, containing product and substrate, was removed and used directly for HPLC analysis.
All other instruments used were the same as above for the N-oxygenation reactions. Conditions for elution were 50% CH3CN/H2O (v:v) with a flow rate gradient as follows: 1.5 ml min^−1 from 0 to 4 min., 1.5-2.5 ml min^−1 from 4 to 5 min, 2.5 ml min^−1 from 5 to 15 min.
Trimethylamine is commonly ingested in foodstuffs or it is available in the diet of humans from choline and other sources. Trimethylamine (TMA) is exclusively eliminated in humans by metabolism to trimethylamine N-oxide (TMANO). […] Thus, urinary TMANO formation provides a simple, reliable and direct assay of FMO3 activity in adult humans. Analysis of TMA to TMANO ratios provides a direct means of phenotyping adult humans for FMO3 activity. Phenotyping FMO3 activity in humans would provide a simple means of evaluating the relationship between the presence of FMO3 and various disease conditions. […]

[9] = normal humans, dietary sources or otherwise; cited from earlier work
[10] = substrate: CN(C)C; assay: not read; settings: other: Lys 158 variant; evaporative light scattering HPLC detection; 37.0 °C
Procedure: This HPLC system efficiently resolved the 5-DTP substrate from the N-oxide product with retention times of 5.30 min and 4.30 min, respectively.
MTS-oxygenation assays were carried out under the same buffer, temperature, time and volume conditions, as for the N-oxygenation assays. The reactions were initiated upon addition of 10 μl of a 5 mM solution of MTS. […]

[11] = substrate: NC(=S)c1ccccc1; assay: cells, lysate or membranes named; settings: other: N- or S-oxide formation; for the 4-bromophenyl-1,3-oxathiolanes formation of the trans S-oxide; pH 8.4; 37.0 °C
Procedure: Competent NM522 Escherichia coli cells were transformed with the pTrc HLFMO 3 plasmid. […] After inoculation with a fresh overnight culture of NM522 containing pTrcHLFMO 3, the culture was grown at 37° C. until Abs600 was approximately 0.5 absorbance units. Finally, IPTG (0.8 mM) was added to the culture to induce expression of protein and the culture was left to grow overnight at 37° C.
The bacterial pellet was resuspended in 5 volumes of 50 mM potassium phosphate buffer (pH 8.4) containing 1% Triton X-100, 0.1% L-, α-phosphatidylcholine (L-α-lecithin) from egg yolk, 500 μM PMSF, and 1 mM EDTA. The mixture was sonicated and then centrifuged to remove cellular debris. […]

human FMO3, sequence (P31513 whole entry): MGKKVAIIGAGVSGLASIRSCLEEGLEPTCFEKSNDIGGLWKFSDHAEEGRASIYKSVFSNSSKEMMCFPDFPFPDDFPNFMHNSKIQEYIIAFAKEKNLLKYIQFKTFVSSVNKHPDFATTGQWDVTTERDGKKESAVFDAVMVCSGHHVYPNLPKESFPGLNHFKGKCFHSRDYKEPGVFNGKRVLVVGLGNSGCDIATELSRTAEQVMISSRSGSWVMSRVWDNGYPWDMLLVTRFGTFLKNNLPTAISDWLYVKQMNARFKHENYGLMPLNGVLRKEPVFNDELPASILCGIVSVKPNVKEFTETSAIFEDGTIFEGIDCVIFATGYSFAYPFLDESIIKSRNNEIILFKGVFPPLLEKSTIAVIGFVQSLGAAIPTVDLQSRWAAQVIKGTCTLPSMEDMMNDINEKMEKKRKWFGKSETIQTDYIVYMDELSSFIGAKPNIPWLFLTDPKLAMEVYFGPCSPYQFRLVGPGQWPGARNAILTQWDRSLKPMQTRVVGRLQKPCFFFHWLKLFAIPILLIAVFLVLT

## CN1CCC[C@H]1c1cccnc1 [(S)-nicotine]
[1]
  N-1'-oxide product stereoselectivity: exclusively converted to trans (S)-nicotine N-1′-oxide

## CN(C)CCCN1c2ccccc2CCc2ccccc21 [imipramine]
[2]
  substrate activity, in words: excellent substrate

## C[N+]1([O-])CCN(c2cc3c(cc2F)c(=O)c(C(=O)O)cn3-c2ccc(F)cc2)CC1 [difloxacin terminal tertiary amine N-oxide]
[3]; 50 or 100 micrograms per mL
  cytotoxicity: not significantly cytotoxic

## CN1CCN(c2cc3c(cc2F)c(=O)c(C(=O)O)cn3-c2ccc(F)cc2)CC1 [difloxacin]
[3]; Escherichia coli, read-out: bactericidal action EC50
  EC50: ~5 µg/mL (≈ 12.5 µM)
[4]
  effect of FMO1 plasmid on growth in the presence of the antibiotic: conferred resistance
[5]
  sensitivity of strains containing FMO3 cDNA to the antibiotic: much more sensitive

## CCCCCCCCNN1c2ccccc2Sc2ccc(C(F)(F)F)cc21 [10-(N-n-octylamino)-2-(trifluoromethyl)phenothiazine]
[6]
  oxime formation from primary amine, product stereoselectivity: stereoselectively converted to the cis oxime
[7]
  oxime formation from primary amine, product stereoselectivity: stereoslectively converted to the cis oxime

## NCCc1ccccc1 [phenethylamine]
[6]; cDNA-expressed human FMO3-MBP
  oxime formation from primary amine, product stereoselectivity: stereoselectively converted to trans oximes
[7]; adult human liver microsomes, NADPH-dependent
  oxime formation from primary amine, product stereoselectivity: stereoselectively converted to trans oximes

## CN(C)C [TMA, trimethylamine]
[8]
  Vmax of N-oxygenation to TMANO: 3.8 nmol of TMANO formed/min/mg of protein
[9]
  dose converted to TMANO that is excreted in the urine: over 95%

B1: lys158-HFMO3-MBP (Homo sapiens; E158K) (protein)
chain: T2 sequence (P31513 2-532 E158K)
[10]
  Km: 634 µM

B2: adult human liver flavin-containing monooxygenase (form 3) (Homo sapiens; E158K) (protein)
chain: MGKKVAIIGAGVSGLASIRSCLEEGLEPTCFEKSNDIGGLWKFSDHAEEGRASIYKSVFSNSSKEMMCFPDFPFPDDFPNFMHNSKIQEYIIAFAKEKNLLKYIQFKTFVSSVNKHPDFATTGQWDVTTERDGKKESAVFDAVMVCSGHHVYPNLPKKSFPGLNHFKGKCFHSRDYKEPGVFNGKRVLVVGLGNSGCDIATELSRTAEQVMISSRSGSWVMSRVWDNGYPWDMLLVTRFGTFLKNNLPTAISDWLYVKQMNARFKHENYGLMPLNGVLRKEPVFNDELPASILCGIVSVKPNVKEFTETSAIFEDGTIFEGIDCVIFATGYSFAYPFLDESIIKSRNNEIILFKGVFPPLLEKSTIAVIGFVQSLGAAIPTVDLQSRWAAQVIKGTCTLPSMEDMMNDINEKMEKKRKWFGKSETIQTDYIVYMDELSSFIGAKPNIPWLFLTDPKLAMEVYFGPCSPYQFRLVGPGQWPGARNAILTQWDRSLKPMQTRVVGRLQKPCFFFHWLKLFAIPILLIAVFLVLT
[11]
  Km: 72.6 µM
  Vmax: 1.44 nmol/min/mg of protein

From patent US6762052B1, “DNA sequence encoding flavin-containing monooxygenase” (priority 1993, dated 2004)
